In patent US11319324B2, “Pyrazolo-pyrrolo-pyrimidine-dione derivatives as P2X3 inhibitors” (Bayer Aktiengesellschaft, priority 2017, dated 2022):

Tests used:
Assay type in all cases: cell-based
human P2X2/3 receptors = biological target: T1, human P2X2/3 receptors (Homo sapiens, UniProt P56373+Q9UBL9); assay: Intracellular calcium measurement, antagonist activity at human P2X2/3 receptors (hP2X23 1321N1), Fluo8; conditions: for IC50: column 4); 1321N1 cells, human P2X2/3, Fluo8, agonist ATP at EC50; read-out: 4) hP2X2/3 IC50 [nM] (1321N1); for hP2X23/hP2X3* Selectivity (1321N1): ratio of column 4) hP2X2/3 to column 3) hP2X3, 1321N1
T1 construct: expressed in transfected cells; host or cells: human astrocytoma 1321N1 (1312N1 [sic])
T1 sequence (P56373 1-397): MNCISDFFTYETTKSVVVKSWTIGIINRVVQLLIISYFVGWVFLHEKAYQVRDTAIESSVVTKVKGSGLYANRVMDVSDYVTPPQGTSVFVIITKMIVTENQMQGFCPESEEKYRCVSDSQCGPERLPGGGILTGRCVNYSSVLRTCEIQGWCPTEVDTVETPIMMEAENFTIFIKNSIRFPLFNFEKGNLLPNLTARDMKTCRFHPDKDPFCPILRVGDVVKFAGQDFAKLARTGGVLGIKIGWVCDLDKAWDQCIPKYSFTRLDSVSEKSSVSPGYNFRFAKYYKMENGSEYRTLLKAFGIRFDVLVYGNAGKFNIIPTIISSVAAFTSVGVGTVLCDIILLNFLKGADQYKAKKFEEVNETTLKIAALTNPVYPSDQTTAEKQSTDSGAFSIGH
T1 sequence (Q9UBL9 1-471): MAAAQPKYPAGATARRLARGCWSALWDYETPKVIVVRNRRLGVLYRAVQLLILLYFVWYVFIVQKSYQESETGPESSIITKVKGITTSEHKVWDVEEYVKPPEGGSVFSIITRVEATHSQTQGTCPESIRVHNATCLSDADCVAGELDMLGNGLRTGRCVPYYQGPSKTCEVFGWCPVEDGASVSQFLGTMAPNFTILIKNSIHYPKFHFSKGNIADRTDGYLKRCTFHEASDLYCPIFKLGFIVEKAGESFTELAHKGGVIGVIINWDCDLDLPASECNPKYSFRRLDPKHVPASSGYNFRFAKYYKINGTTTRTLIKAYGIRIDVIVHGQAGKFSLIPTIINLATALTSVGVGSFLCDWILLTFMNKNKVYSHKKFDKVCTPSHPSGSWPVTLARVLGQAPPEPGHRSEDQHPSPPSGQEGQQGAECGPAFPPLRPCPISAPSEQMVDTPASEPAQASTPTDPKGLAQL
Procedure, shortened: (§1)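 Antagonism was assessed by decrease of the Fluo8 calcium signal after ATP challenge, with ATP dosed at the EC50 of whichever receptor was tested. Stable 1321N1 astrocytoma lines expressed either human P2X3 or both P2X2 and P2X3, and were dye-loaded 60 min before a 10 min compound incubation.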

human P2X3 receptor [1] = biological target: T2, human P2X3 receptor (Homo sapiens, UniProt P56373); assay: Intracellular calcium measurement to assess antagonist activity at human P2X3 receptors (hP2X3 CHO), photina luminescence; parameters: expressed in transfected cells; host or cells: Chinese hamster ovary (CHO) cells; conditions: column 2), CHO cells, agonist α,β-methylene-ATP at EC50
T2 sequence (P56373 1-397): T1 sequence (P56373 1-397)
Procedure, shortened: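 Antagonism read as lowered photina luminescence after agonist stimulation in recombinant hP2X3/photina CHO cells. Cells seeded one day earlier (30 °C) and reconstituted with 5 μg/ml coelenterazine in 2 mM Ca-tyrode buffer for 3 h at 37 °C before measurement.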

human P2X3 receptor [2] = biological target: T2, human P2X3 receptor; assay: Intracellular calcium measurement, antagonist activity at human P2X3 receptors (hP2X3 1321N1), Fluo8; parameters: expressed in transfected cells; host or cells: human astrocytoma 1321N1 (1312N1 [sic]); conditions: column 3); 1321N1 cells, human P2X3, Fluo8, agonist ATP at EC50
Procedure, shortened: as §1

Row | Structure (SMILES) | IC50 (human P2X2/3 receptors) [nM] | hP2X23/hP2X3* Selectivity (1321N1) (human P2X2/3 receptors) | IC50 (human P2X3 receptor [1]) [nM] | IC50 (human P2X3 receptor [2]) [nM]
1 | Cc1ccc(-c2cc3n(CC(=O)Nc4ccc(F)cn4)c4c(c(=O)n3n2)CN(C(C)C)C4=O)c(C)n1 [Example 157] | > 32000 | >593 | 26 | 54
2 | CCc1cc2n(CC(=O)Nc3ccc(F)cn3)c3c(c(=O)n2n1)CN(C[C@@H]1CCCO1)C3=O [Example 279, 2-{2-ethyl-5,8-dioxo-6-[(2S)-tetrahydrofuran-2-ylmethyl]-5,6,7,8-tetrahydro-4H-pyrazolo[1,5-a]pyrrolo[3,4-d]pyrimidin-4-yl}-N-(5-fluoropyridin-2-yl)acetamide] | > 23000 | >85 | 210 | 270
3 | CC(C)N1Cc2c(n(CC(=O)Nc3ccc(F)cn3)c3cc(C4CCNCC4)nn3c2=O)C1=O.Cl [Example 234, 2-[5,8-dioxo-2-(piperidin-4-yl)-6-(propan-2-yl)-5,6,7,8-tetrahydro-4H-pyrazolo[1,5-a]pyrrolo[3,4-d]pyrimidin-4-yl]-N-(5-fluoropyridin-2-yl)acetamide hydrochloride (1:1)] | > 32000 | >86 | 125 | 370
4 | CCc1cc2n(CC(=O)Nc3ccc(F)cn3)c3c(c(=O)n2n1)CN(C1CCN(C(=O)OC(C)(C)C)CC1)C3=O [Example 76] | > 21500 | >13 | 470 | 1670
5 | CC(C)N1Cc2c(n(CC(=O)Nc3ccc(F)cn3)c3cc(C(=O)N4CCC4)nn3c2=O)C1=O [Example 223, 2-[2-(azetidin-1-ylcarbonyl)-5,8-dioxo-6-(propan-2-yl)-5,6,7,8-tetrahydro-4H-pyrazolo[1,5-a]pyrrolo[3,4-d]pyrimidin-4-yl]-N-(5-fluoropyridin-2-yl)acetamide] | 8920 | 158 | 23 | 56
6 | COC[C@H](C)N1Cc2c(n(CC(=O)Nc3ccc(F)cn3)c3cc(Cl)nn3c2=O)C1=O [Example 102] | > 22500 | >278 | 114 | 81
7 | CCc1cc2n(CC(=O)Nc3ccc(F)cn3)c3c(c(=O)n2n1)CN(C1CCN(S(C)(=O)=O)C1)C3=O (stereo not drawn) [Example 272] | > 32000 | >52 | 433 | 610
8 | CCc1cc2n(CC(=O)Nc3ccc(F)cn3)c3c(c(=O)n2n1)CN(CC1CCOC1)C3=O (stereo not drawn) [Example 74] | > 32000 | >73 | 570 | 437
9 | CCc1cc2n(CC(=O)Nc3ccc(F)cn3)c3c(c(=O)n2n1)CN(CC(=O)NC(C)C)C3=O [Example 292] | > 32000 | >267 | 112 | 120
10 | CCc1cc2n(CC(=O)Nc3ccc(F)cn3)c3c(c(=O)n2n1)CN(C(COC)COC)C3=O [Example 99] | 9100 | 607 | 21 | 15

Further lines, results first:

Row | IC50 (human P2X2/3 receptors) [nM] | hP2X23/hP2X3* Selectivity (1321N1) (human P2X2/3 receptors) | IC50 (human P2X3 receptor [1]) [nM] | IC50 (human P2X3 receptor [2]) [nM] | Structure (SMILES)
11 | 1660 | 160 | 17 | 10 | CCc1cc2n(CC(=O)Nc3ccc(F)cn3)c3c(c(=O)n2n1)CN(CCNC(=O)OC(C)(C)C)C3=O [Example 68, tert-butyl {2-[2-ethyl-4-{2-[(5-fluoropyridin-2-yl)amino]-2-oxoethyl}-5,8-dioxo-5,8-dihydro-4H-pyrazolo[1,5-a]pyrrolo[3,4-d]pyrimidin-6(7H)-yl]ethyl}carbamate]
12 | 7700 | 114 | 88 | 68 | CC(C)N1Cc2c(n(CC(=O)Nc3ccc(F)cn3)c3cc(NCCOCc4ccccc4)nn3c2=O)C1=O [Example 176, 2-[2-{[2-(benzyloxy)ethyl]amino}-5,8-dioxo-6-(propan-2-yl)-5,6,7,8-tetrahydro-4H-pyrazolo[1,5-a]pyrrolo[3,4-d]pyrimidin-4-yl]-N-(5-fluoropyridin-2-yl)acetamide]
13 | 2200 | 917 | 14 | 2 | COC[C@H](C)N1Cc2c(n(CC(=O)Nc3ccc(F)cn3)c3cc(NC4CCCC4)nn3c2=O)C1=O [Example 178]
14 | 2300 | 128 | 36 | 18 | CC(C)N1Cc2c(n(CC(=O)Nc3ccc(F)cn3)c3cc(NC4CC4)nn3c2=O)C1=O [Example 167, 2-[2-(cyclopropylamino)-5,8-dioxo-6-(propan-2-yl)-5,6,7,8-tetrahydro-4H-pyrazolo[1,5-a]pyrrolo[3,4-d]pyrimidin-4-yl]-N-(5-fluoropyridin-2-yl)acetamide]
15 | 1800 | 51 | 16 | 36 | CCOC(=O)c1cc2n(CC(=O)Nc3ccc(F)cn3)c3c(c(=O)n2n1)CN(C(C)C)C3=O [Example 70, ethyl 4-{2-[(5-fluoropyridin-2-yl)amino]-2-oxoethyl}-5,8-dioxo-6-(propan-2-yl)-5,6,7,8-tetrahydro-4H-pyrazolo[1,5-a]pyrrolo[3,4-d]pyrimidine-2-carboxylate]
16 | 3200 | 200 | 18 | 16 | CCc1cc2n(CC(=O)Nc3ccc(F)cn3)c3c(c(=O)n2n1)CN(Cc1ccccn1)C3=O [Example 108]
17 | 1950 | 31 | 32 | 63 | CCc1cc2n(CC(=O)Nc3ccc(F)cn3)c3c(c(=O)n2n1)CN(CC1CCN(C(=O)OC(C)(C)C)C1)C3=O (stereo not drawn) [Example 80]
18 | 5550 | 142 | 41 | 39 | CCc1cc2n(CC(=O)Nc3ccc(F)cn3)c3c(c(=O)n2n1)CN(C[C@@H]1COCCN1CCC(F)(F)F)C3=O [Example 261]
19 | 4700 | 191 | 35 | 25 | CC(=O)N1CCC(c2cc3n(CC(=O)Nc4ccc(F)cn4)c4c(c(=O)n3n2)CN(C(C)C)C4=O)CC1 [Example 263, 2-[2-(1-acetylpiperidin-4-yl)-5,8-dioxo-6-(propan-2-yl)-5,6,7,8-tetrahydro-4H-pyrazolo[1,5-a]pyrrolo[3,4-d]pyrimidin-4-yl]-N-(5-fluoropyridin-2-yl)acetamide]
20 | 8900 | 85 | 58 | 104 | CCNc1cc2n(CC(=O)Nc3ccc(F)cn3)c3c(c(=O)n2n1)CN(C(C)C)C3=O [Example 173]
21 | 6950 | 535 | 28 | 13 | COC[C@H](C)N1Cc2c(n(CC(=O)Nc3ccc(F)cn3)c3cc(C4CC4)nn3c2=O)C1=O [Example 101]
22 | 2350 | 295 | 6 | 8 | CC(C)Cc1cc2n(CC(=O)Nc3ccc(F)cn3)c3c(c(=O)n2n1)CN(C1CCCC1)C3=O [Example 93]
23 | 5150 | 21 | 55 | 240 | CCc1cc2n(CC(=O)Nc3ccc(Cl)cn3)c3c(c(=O)n2n1)CN(CC1CCCO1)C3=O (stereo not drawn) [Example 62]
24 | 2350 | 17 | 70 | 140 | CCc1cc2n(CC(=O)Nc3ccc(F)cn3)c3c(c(=O)n2n1)CN(C[C@H]1CN(C(=O)OC(C)(C)C)CCO1)C3=O [Example 86, tert-butyl(2S)-2-{[2-ethyl-4-{2-[(5-fluoropyridin-2-yl)amino]-2-oxoethyl}-5,8-dioxo-5,8-dihydro-4H-pyrazolo[1,5-a]pyrrolo[3,4-d]pyrimidin-6(7H)-yl]methyl}morpholine-4-carboxylate]
